Patent US10058100B2, “Hydrogen sulfide releasing compounds and their use” (THE UNIVERSITY OF EXETER, priority 2011, dated 2018)
Entries after “also recorded” stand apart in the source; their conditions may differ.

Columns and labels:
[1] = system: anaesthetised Wistar rats; experiment: Blood pressure, heart rate and breathing rate of anaesthetised Wistar rats; format: in vivo, rat; conditions: for blood pressure / breathing rate / heart rate: anaesthetised Wistar rats
Description: The mean arterial blood pressure (MAP) of anaesthetised Wistar rats was measured by a pressure transducer in the carotid artery. In ex vivo experiments, effects of AP39 were studied on noradrenaline precontracted rat aortic rings (see below). The single channel properties of intracellular chloride channels from rat heart were studied using the bilayer lipid membrane method (see below).
(§1) The catheter was inserted into the right jugular vein of male wistar rats or male spontaneously hypertensive (SHR) rats so as to reach the right atrium. Anesthesia (ZOLELIT, VIRBAC, 40 mg/kg to leg) and Xylazine 2%. AP39 solutions were prepared in 4 μl DMSO then mixed with 100 μl Krebs solution and immediately applied for 10 sec. (FIGS. 20, 21 and 22).
(§2) Blood pressure, heart rate and breathing rate were all measured at the same time, in accordance with Ling et al., 2008 Circulation 117 2351-2360.

[2] = system: spontaneously hypertensive (SHR) rats; experiment: Blood pressure, heart rate and breathing rate of anaesthetised SHR rats; format: in vivo, rat
Description: as §1, §2

HMEC [3] = experiment: Cell death induced by inhibitors of endogenous H2S synthesis (AOAA, PAG); format: cell-based, human; conditions: FIGS. 5-7, p<0.001
Description: In the data shown in FIGS. 5 to 7, ###=p<0.001 compared to the control; ***=p<0.001 compared to inhibitors.

cancer = conditions: in vitro and in vivo; cited from earlier work
HMEC [4] = experiment: Intracellular oxidative stress measurements (DCFDA assay); format: cell-based, human; conditions: for 4-HNE-derived intracellular oxidant species (DCFDA assay): FIGS. 14 and 15; for time dependent increase in intracellular oxidative stress (DCFDA assay): FIG. 15
Description: HMEC were incubated with H2S donor compounds for 5 hrs then H2O2, […] or SIN-1 were added for 2 hrs. Intracellular oxidative stress was then assessed using dichlorofluorescein diacetate (added at a final concentration of 10 μM) and fluorescence detected using a Gemini M2e microplate reader at 37° C. (excitation wavelength, 488 nm, emission wavelength 525 nm). The method was performed in accordance with the method described by M. Whiteman et al (Meths. Mol. Biol., 2008, 476, 29-50).

HMEC [5] = experiment: Mitochondrial membrane potential (ΔΨm), tetramethylrhodamine methyl ester; format: cell-based, human; conditions: H2O2, SIN-1 or 4-HNE, FIG. 13
Description: HMEC were incubated with H2S donor compounds for 5 hrs followed by the addition of oxidants SIN-1 (500 μM), H2O2 (50 μM) or […] (10 μM) for 24 hrs. After this time the mitochondria-specific potentiometric dye tetramethylrhodamine methyl ester (200 nM) was added and fluorescence was determined using a Gemini M2e microplate reader (excitation wavelength 548 nm, emission wavelength 573 nm). The method was performed in accordance with the method described by M. Whiteman et al (FASEB J, 2004, 18, 1395-1397).

HMEC [6] = experiment: Mitochondrial oxidative stress measurements (MitoSox Red); format: cell-based, human; conditions: for mitochondrial superoxide formation induced by 4-HNE (MitoSOX red): 4-HNE 10 μM; for mitochondrial superoxide formation induced by H2O2 (MitoSOX red): H2O2 50 μM, FIG. 17
Description: HMEC were incubated with H2S donor compounds for 5 hrs then the oxidants H2O2, SIN-1 or […] added for 2 hrs. We used a mitochondria-selective oxidant probe MitoSox Red (final concentration, 5 μM) to detect mitochondria-derived oxidant species by fluorescence using a Gemini M2e microplate reader (excitation wavelength 510 nm, emission wavelength, 580 nm). The method was performed in accordance with the method described by M. Whiteman et al (Meths. Mol. Biol., 2008, 476, 29-50) and R. A. Quintanilla et al (J Biol Chem., 2008, 284, 18754-18766).

[7] = system: adrenaline-precontracted rat aorta; experiment: Relaxation of adrenaline precontracted rat aortic rings; conditions: AP39 1-5 μM, 200 nmol/l adrenaline, FIG. 23 A-C
Description: (§3) The rings of thoracic aorta (approx. 3-4-mm diameter) or mesenteric artery were prepared from male Wistar rats and were mounted for recording of isometric tension changes in pneumoxid-oxygenated (95% O2:CO2, 37° C.) Krebs-bicarbonate solution as described in Ling et al., 2008 Circulation 117 […]. The aortic ring was pre-contracted with 200 nmol/l adrenaline and the effect of AP39 was evaluated (FIG. 23).

inflammasome [8] = experiment: Inhibition of inflammasome activity once inflammasome is activated, IL-1β ELISA in THP-1 cells; format: cell-based, human; conditions: LPS 24 hrs, then ATP and AP39 24 hrs, FIG. 36
Description: Human THP-1 cells were cultured in RPMI medium and exposed to bacterial endotoxin (lipopolysaccharide; LPS) (1 μg/ml) for 24 hrs, followed by ATP (5 mM) and AP39 for 24 hrs. After this time cell culture media was collected and inflammasome activity determined by measuring IL-1β levels in the culture media by commercial ELISA (Human IL-1 beta ELISA Ready-SET-Go, eBioscience) (FIG. 36). Data are mean+/−standard deviation (n=3).

[9] = system: chloride channels derived from rat heart sarcoplasmic reticulum; experiment: Single channel properties of chloride channels in bilayer lipid membrane; format: biochemical
Description: Sarcoplasmic reticulum (SR) vesicles, isolated from rat heart, were fused into bilayer lipid membrane separating the cis and trans chambers, and electrical current through the single chloride channel was measured. […] The single channel parameters: Open probability, current-voltage relationship, reversal potential, mean open and close time and single current amplitude were evaluated (FIGS. 24-28).

inflammasome [10] = experiment: Inhibition of inflammasome activation (LPS/ATP), IL-1β ELISA in THP-1 cells; format: cell-based, human; conditions: AP39 with LPS 1 μg/ml 24 hrs, then ATP 5 mM 24 hrs, FIG. 35
Description: Human THP-1 cells were cultured in RPMI medium and incubated with AP39 and bacterial endotoxin (lipopolysaccharide; LPS) (1 μg/ml) for 24 hrs, followed by ATP (5 mM) for an additional 24 hrs. After this time cell culture media was collected and inflammasome activation determined by measuring […] levels in the culture media by commercial ELISA (Human IL-1 beta ELISA Ready-SET-Go, eBioscience) (FIG. 35). Data are mean+/−standard deviation (n=3).

peroxiredoxin 3 (Prx3) = experiment: Western blot of mitochondrial peroxiredoxin 3 oxidation in THP-1 cells; format: cell-based, human
Description: Human THP-1 (monocytic) cells were exposed to an oxidative stress inducing agent (hydrogen peroxide; H2O2, 25 μM) in the presence or absence of the mitochondria-targeted H2S donor AP39.
In the experiment resulting in FIG. 32, the human THP-1 (monocytic) cells were exposed to 25 μM H2O2 for 4 hours in the absence or presence of different concentrations of AP39 (given in μM).
In the experiment resulting in FIG. 33, the human THP-1 (monocytic) cells were exposed to different concentrations of AP39 (given in μM) for 4 hours followed by the addition of 25 μM H2O2 for 1 minute.
In both experiments, after these time periods the levels of native mitochondrial matrix protein peroxiredoxin 3 (Prx3) (dimer, molecular weight 37 kDa) and over-oxidised Prx3 (monomer, molecular weight 25 kDa) were determined by standard western blotting procedures (M Whiteman et al (FASEB J, 2004, 18, 1395-1397) (FIGS. 32 and 33).

[11] = system: Human brain microvascular endothelial cells (HMEC); experiment: Prevention of cell death induced by oxidants (SIN-1, H2O2, 4-HNE), Alamar Blue; format: cell-based
[12] = system: transcription factor Nrf2; experiment: Nrf2 activation, luciferase reporter in AREc32 cells; format: cell-based, human; conditions: FIG. 34
Description: Nrf2 activation was studied in AREc32 cells. This stable cell line is derived from MCF-7 cells transfected with a construct containing eight copies of the rat glutathione-S-transferase-A2 Antioxidant Response […] Element (ARE) and the SV40 promoter sequence upstream of a firefly luciferase reporter gene (Wang, X. J. et al., 2006, Cancer Res, 66, 10983-94). […] After 4 h the treatments were removed and the cells were treated with sulforaphane (12.5 μM), an Nrf2-activator and positive control, for 24 hrs. Nrf-2 activation (luciferase activity) was then assessed by luminescence with a BMG labtech Omega microplate reader (FIG. 34). Data are expressed as fold induction of luciferase activity normalised to cell biomass (sulforhodamine B).

mesenteric arteries = experiment: Relaxation of adrenaline precontracted rat mesenteric arteries; conditions: AP39 1-5 μM, FIG. 23 D
Description: as §3

[13] = target: T1, CAv3.1 T-type calcium channels (Homo sapiens, UniProt O43497); experiment: T-type calcium channel CAv3.1 whole cell patch-clamp in HEK 293 cells; format: cell-based; conditions: HEK293 cells, concentration and time-dependent, holding potential −100 mV, FIGS. 29-31
T1 construct: expressed in transfected cells; host or cells: HEK 293 cells, permanently transfected
T1 sequence (O43497 whole entry): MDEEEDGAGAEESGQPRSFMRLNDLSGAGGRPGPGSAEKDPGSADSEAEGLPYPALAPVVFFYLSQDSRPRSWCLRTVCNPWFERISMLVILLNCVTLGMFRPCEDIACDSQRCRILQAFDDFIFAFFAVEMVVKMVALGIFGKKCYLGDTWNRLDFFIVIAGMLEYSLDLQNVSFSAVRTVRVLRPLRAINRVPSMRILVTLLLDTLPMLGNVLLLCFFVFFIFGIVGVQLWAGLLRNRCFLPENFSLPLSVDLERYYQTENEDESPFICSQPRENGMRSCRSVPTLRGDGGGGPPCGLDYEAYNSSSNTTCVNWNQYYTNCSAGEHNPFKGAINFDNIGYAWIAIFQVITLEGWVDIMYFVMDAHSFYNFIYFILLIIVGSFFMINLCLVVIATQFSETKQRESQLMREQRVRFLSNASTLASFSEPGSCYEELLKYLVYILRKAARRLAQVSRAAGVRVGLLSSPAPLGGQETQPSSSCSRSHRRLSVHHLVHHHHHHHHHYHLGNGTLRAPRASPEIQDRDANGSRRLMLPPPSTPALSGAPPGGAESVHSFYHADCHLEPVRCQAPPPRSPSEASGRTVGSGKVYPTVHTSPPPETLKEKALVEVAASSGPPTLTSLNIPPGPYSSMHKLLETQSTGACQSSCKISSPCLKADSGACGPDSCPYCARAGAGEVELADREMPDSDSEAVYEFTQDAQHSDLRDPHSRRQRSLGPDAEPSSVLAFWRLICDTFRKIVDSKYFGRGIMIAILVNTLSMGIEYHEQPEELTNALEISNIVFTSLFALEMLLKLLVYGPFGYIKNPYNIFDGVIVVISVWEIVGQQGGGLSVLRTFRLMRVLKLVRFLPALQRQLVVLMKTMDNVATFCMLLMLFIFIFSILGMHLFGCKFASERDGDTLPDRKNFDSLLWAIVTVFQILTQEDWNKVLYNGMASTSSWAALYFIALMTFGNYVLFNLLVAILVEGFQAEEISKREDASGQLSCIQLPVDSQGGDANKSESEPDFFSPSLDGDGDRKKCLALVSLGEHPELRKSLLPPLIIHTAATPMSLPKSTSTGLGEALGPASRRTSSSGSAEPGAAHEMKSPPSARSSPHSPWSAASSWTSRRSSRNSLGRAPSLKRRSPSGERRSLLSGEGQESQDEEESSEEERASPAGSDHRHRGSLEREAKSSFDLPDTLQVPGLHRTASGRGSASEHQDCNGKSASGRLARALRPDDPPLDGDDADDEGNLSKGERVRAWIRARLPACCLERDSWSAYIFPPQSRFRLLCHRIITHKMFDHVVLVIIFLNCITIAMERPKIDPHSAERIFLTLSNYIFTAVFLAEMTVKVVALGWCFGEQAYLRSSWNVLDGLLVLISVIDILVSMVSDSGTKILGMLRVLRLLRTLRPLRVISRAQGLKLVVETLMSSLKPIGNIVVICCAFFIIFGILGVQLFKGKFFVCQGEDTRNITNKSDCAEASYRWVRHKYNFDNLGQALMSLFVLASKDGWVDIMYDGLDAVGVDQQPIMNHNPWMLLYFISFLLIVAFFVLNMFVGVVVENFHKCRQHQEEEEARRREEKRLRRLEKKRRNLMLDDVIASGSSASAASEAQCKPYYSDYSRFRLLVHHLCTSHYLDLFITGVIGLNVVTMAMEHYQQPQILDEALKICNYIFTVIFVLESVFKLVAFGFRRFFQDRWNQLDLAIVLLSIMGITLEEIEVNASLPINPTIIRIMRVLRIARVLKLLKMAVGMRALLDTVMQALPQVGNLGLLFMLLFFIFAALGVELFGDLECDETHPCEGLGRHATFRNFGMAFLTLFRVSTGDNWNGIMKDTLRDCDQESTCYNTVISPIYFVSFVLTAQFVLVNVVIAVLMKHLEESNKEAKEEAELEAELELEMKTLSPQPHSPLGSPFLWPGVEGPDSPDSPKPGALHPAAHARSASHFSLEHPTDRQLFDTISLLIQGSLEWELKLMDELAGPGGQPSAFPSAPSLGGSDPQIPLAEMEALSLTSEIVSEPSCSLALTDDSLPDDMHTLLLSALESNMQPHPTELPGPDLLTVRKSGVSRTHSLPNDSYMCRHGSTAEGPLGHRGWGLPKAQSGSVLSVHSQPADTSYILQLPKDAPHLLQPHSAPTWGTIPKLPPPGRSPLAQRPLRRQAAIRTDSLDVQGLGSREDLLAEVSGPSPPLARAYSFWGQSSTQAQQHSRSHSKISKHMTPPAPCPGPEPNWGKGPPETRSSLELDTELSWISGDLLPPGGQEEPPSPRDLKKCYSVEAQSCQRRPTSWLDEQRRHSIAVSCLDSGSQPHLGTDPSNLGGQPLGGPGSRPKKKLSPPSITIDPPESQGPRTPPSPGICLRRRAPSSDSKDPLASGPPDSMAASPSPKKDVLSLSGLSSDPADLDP
Description: CAv3.1 calcium channels were permanently transfected in human embryonic kidney (HEK 293) cells and the calcium currents were measured by a patch-clamp method in the whole cell configuration, from a holding potential −100 mV.
The effect of four different concentrations of AP39 on the current through a Cav3.1 channel was tested (FIGS. 29-31).

[14] = Wistar or SHR rats, Na2S, summary statement, dose not given
[15] = 1.6 μM/kg and 2.7 μM/kg AP39 injected, FIG. 20

[Na+].[Na+].[S-2] [Na2S, reference compound]
blood pressure ([1]; 3 μM/kg Na2S injected, FIG. 20): no effect; also recorded: not observed | breathing rate ([1]; 3 μM/kg Na2S injected, FIG. 20): no effect | heart rate ([1]; 3 μM/kg Na2S injected, FIG. 20): no effect; also recorded: not observed | blood pressure [2, 14]: did not reduce blood pressure | heart rate [2, 14]: did not decrease heart rate

morpholin-4-ium 4-methoxyphenyl(morpholino) phosphinodithioate [GYY4137, reference compound]
AOAA, PAG and AOAA/PAG induced cell death (HMEC [3]; GYY4137 100 μM): significantly inhibited | anti-cancer effects (cancer): anti-cancer effects | 4-HNE-derived intracellular oxidant species (DCFDA assay) (HMEC [4]; GYY4137 100 μM): significantly reduced; also recorded: significantly decreased | time dependent increase in intracellular oxidative stress (DCFDA assay) (HMEC [4]; pretreatment with GYY4137 100 μM): reduced | oxidant-induced mitochondrial membrane potential (Δψm) collapse (HMEC [5]; GYY4137 100 μM): inhibition | mitochondrial superoxide formation induced by 4-HNE (MitoSOX red) (HMEC [6]; GYY4137 100 μM, FIG. 16): reduced | mitochondrial superoxide formation induced by H2O2 (MitoSOX red) (HMEC [6]; GYY4137 100 μM): reduced

O=C(CCCCCCCCC[P+](c1ccccc1)(c1ccccc1)c1ccccc1)Oc1ccc(-c2cc(=S)ss2)cc1.[Br-] [AP39]
vasodilatory effect on adrenaline-precontracted rat aorta [7]: vasodilatory effects | inflammasome activity after activation by LPS/ATP (IL-1β levels) (inflammasome [8]): inhibited | AOAA, PAG and AOAA/PAG induced cell death (HMEC [3]; AP39 100 nM): significantly inhibited | mean open time of the channel ([9]; AP39 20 μmol/l, 0 mV, control 11 ms, FIG. 27): 33 ms | amplitude of the electrical current through the single chloride channels ([9]; AP39 20 and 40 μM, 0 mV, FIGS. 24 and 25): increased | channel open probability ([9]; FIGS. 24-28): increased | mean chloride channel open time, concentration dependence ([9]; concentration dependent manner, FIG. 28): increased | conductance of chloride channels ([9]; control channel 125 pS, FIG. 26): increased | Cl−/K+ channel permeability ratio ([9]; control ratio 9.6, FIG. 26): did not influence | channel reversal potential ([9]; with AP39, control ~−31 mV, FIG. 26): ~−31 mV | blood pressure [1, 15]: reduced | breathing rate [1, 15]: transiently increased | heart rate [1, 15]: reduced | blood pressure ([1]; AP39 4 μM/kg, FIG. 22): sustained blood pressure (A) and heart rate (B) lowering effects | heart rate ([1]; AP39 4 μM/kg, FIG. 22): sustained blood pressure (A) and heart rate (B) lowering effects | effectiveness relative to Na2S at influencing blood pressure, heart rate and breathing rate ([1]; rats, FIGS. 20 to 22): 10-50 times | IL-1β levels in the cell culture media (inflammasome activation) (inflammasome [10]): reduced | 4-HNE-derived intracellular oxidant species (DCFDA assay) (HMEC [4]; AP39 100 nM): significantly reduced; also recorded: significantly decreased | time dependent increase in intracellular oxidative stress (DCFDA assay) (HMEC [4]; pretreatment with AP39 100 nM): reduced | blood pressure ([2]; SHR rats, 1.5 μM/kg AP39 injected, FIG. 21): Sustained blood pressure lowering effects | heart rate ([2]; hypertensive (SHR) rats, AP39, summary statement): reducing | Prx3 oxidation by H2O2 (peroxiredoxin 3 (Prx3); 5 μM AP39 for 4 hours then 25 μM H2O2 for 1 minute, FIG. 33): reduced | levels of the over-oxidised monomeric form of Prx3 (peroxiredoxin 3 (Prx3); 25 μM H2O2, increasing concentrations of AP39, FIGS. 32 and 33): reduced | H2O2-induced cytotoxicity [11]: inhibited | SIN-1 and 4-HNE induced cell death [11]: significantly inhibited | cell death induced by 4-HNE [11]: significantly inhibited | cell death induced by SIN-1 [11]: significantly inhibited | concentration mediating inhibition of cell death, mitochondrial dysfunction and oxidative stress [11]: 50 to 200 nM | Nrf2 transcription factor activation (luciferase activity) ([12]; AREc32 cells, AP39 6.25 μM pre-treatment 4 h): activates | potency at inducing Nrf2 activation compared with GYY4137 ([12]; equimolar concentrations (6.25 μM)): more potent | vasodilatory effect on adrenaline-precontracted mesenteric arteries (mesenteric arteries): vasodilatory effects | oxidant-induced mitochondrial membrane potential (Δψm) collapse (HMEC [5]; AP39 100 nM): inhibition | mitochondrial superoxide formation induced by 4-HNE (MitoSOX red) (HMEC [6]; AP39 0.1 μM, FIGS. 16 and 18): significantly reduced | lower concentration than GYY4137 for reduction of mitochondrial superoxide (HMEC [6]; AP39 0.1 μM versus GYY4137 100 μM): 1,000 fold | mitochondrial superoxide formation induced by H2O2 (MitoSOX red) (HMEC [6]; AP39 0.1 μM): reduced | concentration of AP39 inhibiting CAv3.1 T-type calcium channels [13]: > 300 nM
